Assay results published in patent US20250289789A1, “REVERSIBLE LYSINE COVALENT MODIFIERS OF CDK2 AND USES THEREOF” (Terremoto Biosciences, Inc., priority 2023, published 2025).
pIC50: −log10 of the molar value. Where “and” joins values, the source holds several entries; their conditions need not be identical. Identical values can stand only once. Entries after “also recorded” stand apart in the source; their conditions may differ. Like-named read-outs stand apart in the source and are kept apart here.

What was measured:
[1] = test system: Phospho-Rb Ser807/811 in OVCAR3 cells; experiment: OVCAR3 Phospho-Rb Ser807/811 HTRF assay; type: cell-based; details: Homo sapiens, OVCAR-3, 1 h, read-out: pRb-OVCAR3 IC50
Protocol: Cells were trypsinized and resuspended in 1 mM hydroxyurea (Sigma; H8627), 90% RPMI and 10% fetal bovine serum. […] Dose response curve normalized to DMSO control was plotted using four-parameter logistic model for IC50 calculation.

pCDK2-CCNE1 proteins = pCDK2-CCNE1 proteins (Homo sapiens, UniProt P24941); experiment: Identification of covalent binding by intact mass spectrometry, with and without competitor PF-06873600; details: for Observed mass value of the covalent complex between compound and CDK2 protein: intact mass spectrometry after borohydride reduction, unmodified CDK2 34096-34097 Da; for Covalent complex formation with CDK2 protein (intact mass spectra after sodium borohydride reduction) / Binding pocket by competition: complex formation in presence of molar excess PF-06873600: pCDK2-CCNE1 1 μM, compound 1.5 μM; for Covalent complex formation with CDK2 protein (intact mass spectra after sodium borohydride reduction): 1 hour at room temperature or 37° C., no competitor; for Binding pocket by competition: complex formation in presence of molar excess PF-06873600: competitor PF-06873600 20 μM
Protocol: pCDK2-CCNE1 proteins (1 μM) were treated with a compound (1.5 μM) from Table 4 for 1 hour at room temperature or 37° C., with and without competitor molecule PF-06873600 (20 μM final concentration) as a specificity control. As used herein, the competitor molecule is
As used herein, the competitor molecule is 6-(difluoromethyl)-8-((1R,2R)-2-hydroxy-2-methylcyclopentyl)-2-((1-(methylsulfonyl)piperidin-4-yl)amino)pyrido[2,3-d]pyrimidin-7(8H)-one (PF-06873600). Reversible imines were captured by reductive amination with the addition of 5 mM sodium borohydride at room temperature for 5 min. Reduction reactions were quenched by diluting the sample in equal volume of 1% trifluoroacetic acid (v/v) in acetonitrile, then analyzed by LC-MS. Deconvoluted monoisotopic intensities of unmodified and compound-modified mass peaks were compared.
FIGS. 1A to 1P provide intact mass spectra for pCDK2-CCNE1 proteins after incubation with compounds of the present disclosure and subsequent sodium borohydride reduction. […] Further, FIGS. 1A to 1P each provide intact mass spectra following the incubation of pCDK2-CCNE1 proteins with a compound of the present disclosure both in the absence of a competitor molecule (i.e., PF-06873600, a molecule known to bind to and inhibit the function of CDK2); and in the presence of a significant stoichiometric excess of a competitor molecule PF-06873600.
FIGS. 2A to 2N provide intact mass spectra for pCDK2-CCNE1 proteins after incubation with compounds of the present disclosure and subsequent sodium borohydride reduction.

[2] = target: T1, CDK4-NanoLuc fusion with CCND1 in 293T or 293 cells (Homo sapiens, UniProt P11802); experiment: NanoBRET Target Engagement (TE) Intracellular Kinase Assay, CDK4/CCND1; type: cell-based; details: NanoBRET TE intracellular kinase assay, 2-hour incubation, read-out: NanoBRET-CDK4/D1 IC50
T1 construct: host or cells: 293T (ATCC CRL-3216) or 293 (ATCC CRL-1573)

[3] = target: T2, CDK1-NanoLuc fusion with CCNB1 in 293T or 293 cells (Homo sapiens, UniProt P06493); experiment: NanoBRET Target Engagement (TE) Intracellular Kinase Assay, CDK1/CCNB1; type: cell-based; details: NanoBRET TE intracellular kinase assay, 2-hour incubation, read-out: NanoBRET-CDK1/B1 IC50
T2 construct: host or cells: 293T (ATCC CRL-3216) or 293 (ATCC CRL-1573)
Method in brief: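 293T or 293 cells co-transfected with CDK1-NanoLuc and CCNB1 vectors, incubated 24 h, then exposed to NanoBRET Tracer K-10 plus compound for 2 h at 37° C. BRET ratio (610/450 nm) normalized to DMSO; IC50 from four-parameter logistic fit.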

[4] = target: T3, CDK2-NanoLuc fusion with CCNE1 in 293T or 293 cells (Homo sapiens, UniProt P24941); experiment: NanoBRET Target Engagement (TE) Intracellular Kinase Assay, CDK2/CCNE1; type: cell-based; details: 2-hour incubation
T3 construct: host or cells: 293T (ATCC CRL-3216) or 293 (ATCC CRL-1573)

[5] = OVCAR3 cells, Phospho-Rb Ser807/811 HTRF, 1 hour incubation
[6] = NanoBRET TE intracellular kinase assay, read-out: NanoBRET-CDK2/E1 IC50
[7] = NanoBRET-CDK2/E1 IC50, NanoBRET TE intracellular kinase assay

T2 sequence (P06493 whole entry, the tested form may be a part): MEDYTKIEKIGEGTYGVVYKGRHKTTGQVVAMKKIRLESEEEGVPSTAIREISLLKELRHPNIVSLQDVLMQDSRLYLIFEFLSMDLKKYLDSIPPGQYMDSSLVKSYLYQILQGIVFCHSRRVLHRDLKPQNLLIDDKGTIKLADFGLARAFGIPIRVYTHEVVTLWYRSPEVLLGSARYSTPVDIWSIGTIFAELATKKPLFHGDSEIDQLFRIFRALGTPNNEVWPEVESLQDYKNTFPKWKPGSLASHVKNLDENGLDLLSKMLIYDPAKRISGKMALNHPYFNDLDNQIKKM
T2 sequence (P14635 whole entry partner, the tested form may be a part): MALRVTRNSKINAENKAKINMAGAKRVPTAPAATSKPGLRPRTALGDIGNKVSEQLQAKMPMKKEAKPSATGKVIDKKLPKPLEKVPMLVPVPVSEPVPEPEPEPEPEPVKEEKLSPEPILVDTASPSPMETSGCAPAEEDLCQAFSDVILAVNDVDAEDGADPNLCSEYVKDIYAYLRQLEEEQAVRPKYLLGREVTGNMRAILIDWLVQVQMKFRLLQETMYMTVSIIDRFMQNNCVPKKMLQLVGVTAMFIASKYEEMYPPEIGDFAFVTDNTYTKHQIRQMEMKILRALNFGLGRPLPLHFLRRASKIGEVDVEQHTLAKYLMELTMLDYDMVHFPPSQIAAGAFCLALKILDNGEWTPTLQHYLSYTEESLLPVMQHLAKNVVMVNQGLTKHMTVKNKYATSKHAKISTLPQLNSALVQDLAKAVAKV
T1 sequence (P11802 whole entry, the tested form may be a part): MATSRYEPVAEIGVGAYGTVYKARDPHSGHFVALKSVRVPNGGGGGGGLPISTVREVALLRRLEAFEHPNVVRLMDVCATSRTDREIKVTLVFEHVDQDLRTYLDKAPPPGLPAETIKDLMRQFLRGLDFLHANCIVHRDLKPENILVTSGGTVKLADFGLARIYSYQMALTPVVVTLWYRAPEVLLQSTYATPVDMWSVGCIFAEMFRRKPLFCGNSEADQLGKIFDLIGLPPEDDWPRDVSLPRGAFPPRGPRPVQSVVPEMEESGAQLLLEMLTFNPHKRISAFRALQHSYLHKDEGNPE
T1 sequence (P24385 whole entry partner, the tested form may be a part): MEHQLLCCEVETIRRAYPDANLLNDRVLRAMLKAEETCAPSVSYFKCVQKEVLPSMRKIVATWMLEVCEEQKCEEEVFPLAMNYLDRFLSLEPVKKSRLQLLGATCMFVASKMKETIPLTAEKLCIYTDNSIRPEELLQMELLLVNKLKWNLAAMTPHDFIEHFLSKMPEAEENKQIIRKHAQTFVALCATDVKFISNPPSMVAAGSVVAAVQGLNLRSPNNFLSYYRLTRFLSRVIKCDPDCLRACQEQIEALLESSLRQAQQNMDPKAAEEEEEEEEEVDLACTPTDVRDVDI

| SMILES | pIC50 [1, 5] | Observed mass value of the covalent complex between compound and CDK2 protein (pCDK2-CCNE1 proteins; 2,2,2-trifluoroacetate) | Covalent complex formation with CDK2 protein (intact mass spectra after sodium borohydride reduction) (pCDK2-CCNE1 proteins) | Binding pocket by competition: complex formation in presence of molar excess PF-06873600 (pCDK2-CCNE1 proteins) | pIC50 [2] | pIC50 [3] | pIC50 [4, 6] | Observed mass value of the covalent complex between compound and CDK2 protein (pCDK2-CCNE1 proteins) [Da] | pIC50 [4, 7] | pIC50 [1] | Covalent complex formation with CDK2 protein (intact mass spectra after sodium borohydride reduction) (pCDK2-CCNE1 proteins; trifluoroacetic acid) |
| --- | --- | --- | --- | --- | --- | --- | --- | --- | --- | --- | --- |
| COc1cc(O)c(C=O)c(CCC(=O)Nc2cc([C@H]3CC[C@@H](OC(=O)NC(C)C)C3)[nH]n2)c1 [Compound 22, (1R,3S)-3-(3-(3-(2-formyl-3-hydroxy-5-methoxyphenyl)propanamido)-1H-pyrazol-5-yl)cyclopentyl isopropylcarbamate 2,2,2-trifluoroacetate] | 6.70 | 34538-34539 Da and 34539 Da | formed a covalent complex with CDK2 protein | bound to the same binding pocket of CDK2 as the competitor molecule PF-06873600 | 5.43 | 7.00 | 8.32 |  |  |  |  |
| CC(C)NC(=O)O[C@@H]1CC[C@H](c2cc(NC(=O)[C@@H](C)Oc3cccc(O)c3C=O)n[nH]2)C1 [Compound 32, (1R,3S)-3-{5-[(2R)-2-(2-formyl-3-hydroxyphenoxy)propanamido]-2H-pyrazol-3-yl}cyclopentyl N-isopropylcarbamate] | 6.45 |  | formed a covalent complex with CDK2 protein | bound to the same binding pocket of CDK2 as the competitor molecule PF-06873600 | 5.31 | 7.28 | 8.33 | 34525 |  |  |  |
| CC(C)NC(=O)O[C@@H]1CC[C@H](c2cc(NC(=O)Nc3ccc(O)c(C=O)c3)n[nH]2)C1 [Compound 33, (1R,3S)-3-(5-{[(3-formyl-4-hydroxyphenyl)carbamoyl]amino}-2H-pyrazol-3-yl)cyclopentyl N-isopropylcarbamate] | 6.44 |  | resulted in covalent complex formation |  | 6.44 | 7.15 | 7.95 |  |  |  |  |
| CC(C)NC(=O)O[C@@H]1CC[C@H](c2cc(NC(=O)c3cc(-c4c(F)ccc(O)c4C=O)nn3C)n[nH]2)C1 [Compound 45, (1R,3S)-3-(3-(3-(6-fluoro-2-formyl-3-hydroxyphenyl)-1-methyl-1H-pyrazole-5-carboxamido)-1H-pyrazol-5-yl)cyclopentyl isopropylcarbamate] | 6.94 |  |  |  | 5.80 | 8.17 |  | 34579 | 8.55 |  |  |
| CC(=O)Nc1cccc(OCC(=O)Nc2cc([C@H]3CC[C@@H](OC(=O)NC(C)C)C3)[nH]n2)c1C=O [Compound 46, (1R,3S)-3-{5-[2-(3-acetamido-2-formylphenoxy)acetamido]-2H-pyrazol-3-yl}cyclopentyl N-isopropylcarbamate] | 5.62 |  | resulted in covalent complex formation |  | 5.38 | 6.16 | 7.69 |  |  |  |  |
| CC(C)NC(=O)O[C@@H]1CC[C@H](c2cc(NC(=O)COc3cccc(NS(C)(=O)=O)c3C=O)n[nH]2)C1 [Compound 49, (1R,3S)-3-{5-[2-(2-formyl-3-methanesulfonamidophenoxy)acetamido]-2H-pyrazol-3-yl}cyclopentyl N-isopropyl carbamate] | 6.79 |  |  |  | < 5.00 | 7.15 | 7.61 | 34588 |  |  |  |
| CNC(=O)O[C@@H]1CC[C@H](c2cc(NC(=O)c3cc(-c4cccc(O)c4C=O)nn3C)n[nH]2)C1 [Compound 50, (1R,3S)-3-{5-[5-(2-formyl-3-hydroxyphenyl)-2-methylpyrazole-3-amido]-2H-pyrazol-3-yl}cyclopentyl N-methylcarbamate; trifluoroacetic acid] | 6.42 |  | resulted in covalent complex formation |  | < 5.00 | 7.30 | 8.06 |  |  |  |  |
| C#Cc1cccc(OCC(=O)Nc2cc([C@H]3CC[C@@H](OC(=O)NC(C)C)C3)[nH]n2)c1C=O [Compound 51, (1R,3S)-3-(3-(2-(3-ethynyl-2-formylphenoxy)acetamido)-1H-pyrazol-5-yl)cyclopentyl isopropylcarbamate] | 5.94 |  | formed a covalent complex with CDK2 protein | bound to the same binding pocket of CDK2 as the competitor molecule PF-06873600 | 5.39 | 6.45 | 8.12 | 34519 |  |  |  |
| C#Cc1cccc(-c2cc(C(=O)Nc3cc([C@H]4CC[C@@H](OC(=O)NC(C)C)C4)[nH]n3)n(C)n2)c1C=O [Compound 52, (1R,3S)-3-(3-(3-(3-ethynyl-2-formylphenyl)-1-methyl-1H-pyrazole-5-carboxamido)-1H-pyrazol-5-yl)cyclopentyl isopropylcarbamate] | 5.61 |  | resulted in covalent complex formation |  | 6.27 | 6.42 | 7.66 |  |  |  |  |
| COc1cc(O)c(C=O)c(OCC(=O)Nc2cc([C@H]3CC[C@@H](OC(=O)NC(C)C)C3)[nH]n2)c1 [Compound 64, (1R,3S)-3-{5-[2-(2-formyl-3-hydroxy-5-methoxyphenoxy)acetamido]-2H-pyrazol-3-yl}cyclopentyl N-isopropylcarbamate] | 7.48 |  | resulted in covalent complex formation |  | < 5.19 | 8.02 | 8.56 | 34539 |  |  |  |
| CC(C)NC(=O)O[C@@H]1CC[C@H](c2cc(NC(=O)c3ccnc(Oc4cccc(O)c4C=O)c3)n[nH]2)C1 [Compound 69, (1R,3S)-3-{5-[2-(2-formyl-3-hydroxyphenoxy)pyridine-4-amido]-2H-pyrazol-3-yl}cyclopentyl N-isopropylcarbamate; trifluoroacetic acid] |  |  |  | bound to the same binding pocket of CDK2 as the competitor molecule PF-06873600 | 5.71 | 7.10 |  | 34574 | 8.72 | 6.14 | formed a covalent complex with CDK2 protein; also recorded: resulted in covalent complex formation |
| CC1(NC(=O)O[C@@H]2CC[C@H](c3cc(NC(=O)COc4cccc(O)c4C=O)n[nH]3)C2)CC1 [Compound 82, (1R,3S)-3-{5-[2-(2-formyl-3-hydroxyphenoxy)acetamido]-2H-pyrazol-3-yl}cyclopentyl N-(1-methylcyclopropyl)carbamate; trifluoroacetic acid] | 7.36 |  | resulted in covalent complex formation |  | 5.35 | 7.95 | 8.48 | 34523 |  |  |  |
| COc1cc(OC)c(C=O)c(OCC(=O)Nc2cc([C@H]3CC[C@@H](OC(=O)NC(C)C)C3)[nH]n2)c1 [Compound 103, (1R,3S)-3-{5-[2-(2-formyl-3,5-dimethoxyphenoxy)acetamido]-2H-pyrazol-3-yl}cyclopentyl N-isopropylcarbamate] | 7.50 |  | resulted in covalent complex formation |  | 5.42 | 8.25 | 8.84 | 34554 |  |  |  |
